Experimental data taken from US20250049891A1, “NOVEL PEPTIDE DERIVATIVE DERIVED FROM ADIPONECTIN AND USE THEREOF” (SEOUL NATIONAL UNIVERSITY HOSPITAL, priority 2021, published 2025).
Values after ≈ are worked out from the molar mass of the structure shown. Numbered stars: 1 amine (or outer) side, 2 acyl side, 3 side chain; on linkers, the order of the positions; unused ones are H or OH. Bridge positions count the residues as written; N and C are the ends. Square brackets hold non-standard residues; d marks the D form. Peptide text beside a SMILES is read from it. ξ: configuration not given here. ξhAlg = O=C(C(CCC=[*:3])N[*:1])[*:2]; AllylGly = C=CC[CH](N)C(=O)O

Tests used:
AMPK phosphorylation = AMPK phosphorylation activity in mouse adipocytes (Western blot); format: cell-based; conditions: 3T3-L1, 10 μM, 24 hours; for AMPK phosphorylation activity (fold change): APN5 = 1.0
Experimental: There were confirmed effects of the peptide derivatives of the present disclosure on the expression and receptor activity of adiponectin in mouse adipocytes as a main adiponectin production site. A mouse adipocyte cell line 3T3-L1 was treated with each of the peptide derivatives of the present disclosure at a concentration of 10 μM and cultured for 24 hours, and then cells were obtained. Thereafter, the proteins were extracted and the effect on AMPK phosphorylation, which was responsible for the main downstream signaling of adiponectin, was confirmed by Western blot.

adiponectin receptor 1 = target: T1, adiponectin receptor 1 (Mus musculus, UniProt Q91VH1); assay: AMPK phosphorylation activity after knockdown of adiponectin receptor 1 (siRNA, Western blot); format: cell-based; conditions: 3T3-L1, adiponectin receptor 1 siRNA, 10 μM, 24 hours
T1 construct: a mouse adipocyte cell line 3T3-L1 was treated with siRNA of an adiponectin receptor 1 to be knocked down; endogenous in cells; host or cells: 3T3-L1 mouse adipocyte cell line
T1 sequence (Q91VH1 1-375): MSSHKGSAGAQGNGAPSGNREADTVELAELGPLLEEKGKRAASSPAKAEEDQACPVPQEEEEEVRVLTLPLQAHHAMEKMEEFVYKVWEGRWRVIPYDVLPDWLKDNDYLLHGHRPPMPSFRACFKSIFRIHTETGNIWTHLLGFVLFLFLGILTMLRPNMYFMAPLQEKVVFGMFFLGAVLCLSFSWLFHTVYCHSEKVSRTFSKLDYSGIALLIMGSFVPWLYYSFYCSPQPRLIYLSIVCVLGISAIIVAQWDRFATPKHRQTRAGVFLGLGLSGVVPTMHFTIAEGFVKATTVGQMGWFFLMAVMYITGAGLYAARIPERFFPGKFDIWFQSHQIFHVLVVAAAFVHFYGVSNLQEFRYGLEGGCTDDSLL
Experimental: In order to verify whether the peptide derivative of the present disclosure bound to an adiponectin receptor 1, a mouse adipocyte cell line 3T3-L1 was treated with siRNA of an adiponectin receptor 1 to be knocked down, and each of the peptide derivatives of the present disclosure was treated at 10 μM and cultured for 24 hours, and then cells were obtained. Thereafter, the proteins were extracted and it was confirmed by Western blot whether AMPK phosphorylation activity, which had been increased by the peptide derivatives, was lost.

physchem = conditions: pH 7.4, aqueous buffer, kinetic from dmso stock
Experimental: A PRISMA HT solution was diluted in distilled water at a ratio of 1:40, and then used as a test buffer by adjusting the pH to 7.4.
10 mL of the prepared test material was diluted in 190 μL of isopropyl alcohol and prepared. In addition, 75 mL of the test solution and 70 mL of isopropyl alcohol were mixed to be used as a blank sample, and 5 mL of the test material diluted in isopropyl alcohol was added to the blank sample. After the diluted sample was mixed, the absorbance was measured and used as an initial test value. […] Thereafter, the precipitate was removed from the sample using a filter plate, 74 mL of the filtered sample was added with 75 mL of isopropyl alcohol, and then the absorbance was measured and used as the sample value.
The solubility value of the test material was analyzed using a msol Explore (Solubility explorer program) after measuring the absorbance of each sample through a microplate reader. The average and standard deviation of the experimental values (n=3) repeated three times were calculated using the Excel program.

[1] = Metabolic stability test, rat liver microsomes; format: in vitro ADME; conditions: pH 7.4, rat liver microsomes 0.5 mg/ml, NADPH, 37° C., 30 m
Experimental: (§2) Three types of liver microsomes (Human, Rat, Mouse, 0.5 mg/ml), a 0.1 M phosphate buffer solution (pH 7.4), and the peptide derivative of the present disclosure were added at a concentration of 1 μM and pre-cultured at 37° C. for 5 minutes, and then added with an NADPH Regeneration system solution and cultured at 37° C. for 30 minutes. Thereafter, to terminate the reaction, the mixture was added with an acetonitrile solution containing an internal standard material (chlorpropamide), centrifuged for 5 minutes (14,000 rpm, 4° C.), and then the supernatant was injected into the LC-MS/MS system to analyze a substrate drug, and thus metabolic stability was evaluated.
(§3) The amount of substrate remaining through the reaction was analyzed by LC-MS/MS using Agilent 1290 infinity series pump system (Agilent, USA) and Triple Quad 5500 LC-MS/MS system (Applied Biosystems, USA). The HPLC column was used with a Kinetex C18 column (2.1×100 mm, 1.7 μm particle size; Phenomenex, USA), and the mobile phase was distilled water (A) containing 0.1% formic acid and acetonitrile (B) containing 0.1% formic acid. TurboSpray Ionization was used as an ion source for MS/MS, and a triple quadruple type was used as a mass spectrometer. The produced metabolites were quantified using a multiple reaction monitoring (MRM) quantitative mode, and data analysis was performed using Analyst software (version 1.6.1).

[2] = Metabolic stability test, mouse liver microsomes; format: in vitro ADME; conditions: pH 7.4, mouse liver microsomes 0.5 mg/ml, NADPH, 37° C., 30 m
Experimental: as §2, §3

CYP1A2 = target: T2, CYP1A2 (Homo sapiens, UniProt P05177); conditions: microsomes, 10 µM
T2 sequence (P05177 1-516): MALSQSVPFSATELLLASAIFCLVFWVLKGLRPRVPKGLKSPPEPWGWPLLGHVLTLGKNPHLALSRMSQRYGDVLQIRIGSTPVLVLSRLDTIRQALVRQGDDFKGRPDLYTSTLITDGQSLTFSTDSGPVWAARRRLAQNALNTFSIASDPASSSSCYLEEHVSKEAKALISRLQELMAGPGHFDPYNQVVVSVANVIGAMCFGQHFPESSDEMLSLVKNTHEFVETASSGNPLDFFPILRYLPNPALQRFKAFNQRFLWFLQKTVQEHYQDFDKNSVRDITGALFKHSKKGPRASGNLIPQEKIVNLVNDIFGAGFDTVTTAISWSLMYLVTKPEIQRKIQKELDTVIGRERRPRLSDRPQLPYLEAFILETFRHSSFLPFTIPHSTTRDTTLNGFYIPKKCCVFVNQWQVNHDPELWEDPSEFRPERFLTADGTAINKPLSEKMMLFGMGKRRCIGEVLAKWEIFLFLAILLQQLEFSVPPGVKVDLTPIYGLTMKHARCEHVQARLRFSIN
Experimental: (§1) Metabolites of each CYP isoenzyme indicator drug produced through the reaction were analyzed by LC-MS/MS using the Shimadzu Nexera XR system and TSQ vantage (Thermo).

CYP2C19 = CYP2C19 (Homo sapiens, UniProt P33261); conditions: microsomes, 10 µM
Experimental: as §1

CYP2C9 = CYP2C9 (Homo sapiens, UniProt P11712); conditions: microsomes, 10 µM
Experimental: as §1

CYP2D6 = CYP2D6 (Homo sapiens, UniProt P10635); conditions: microsomes, 10 µM
Experimental: as §1

CYP3A4 = CYP3A4 (Homo sapiens, UniProt P08684); conditions: microsomes, 10 µM
Experimental: as §1

in vitro [3] = conditions: human, plasma
Experimental: (§4) The peptide derivative of the present disclosure was added at a concentration of 1 μM to two types of plasma (human, rat), placed in each tube, and then cultured at 37° C. for time of 0, 30, 60, 120, and 240 minutes. The tube containing plasma was taken out every time, added with an acetonitrile solution containing an internal standard material (chlorpropamide), vortexed for 5 minutes, and centrifuged for 5 minutes (14,000 rpm, 4° C.). Thereafter, the plasma stability of the peptide derivative was evaluated by injecting the supernatant into an LC-MS/MS system and analyzing the drug at each time period. At this time, Procaine and Enalapril were used as reference materials for accuracy during a general plasma stability test.
(§5) After the reaction, the amount of drug remaining in each tube was analyzed by LC-MS/MS using Shimadzu Nexera XR system and TSQ vantage (Thermo). The HPLC column was used with a Luna C18 column (2.0×50 mm, 3 μm particle size; Phenomenex, US), and the mobile phase was distilled water (A) containing 0.1% formic acid and acetonitrile (B) containing 0.1% formic acid. Data analysis was performed using Xcalibur (version 1.6.1). In the result analysis, the plasma stability of each peptide derivative was expressed as % remaining for each time period for the sample without culture.

in vitro [4] = conditions: rat, plasma
Experimental: as §4, §5

in vitro [5] = conditions: human, microsomes, pH 7.4
Experimental: as §2
The HPLC column was used with a Kinetex C18 column (2.1×100 mm, 1.7 μm particle size; Phenomenex, USA), and the mobile phase was distilled water (A) containing 0.1% formic acid and acetonitrile (B) containing 0.1% formic acid. TurboSpray Ionization was used as an ion source for MS/MS, and a triple quadruple type was used as a mass spectrometer. The produced metabolites were quantified using a multiple reaction monitoring (MRM) quantitative mode, and data analysis was performed using Analyst software (version 1.6.1).

[6] = Plasma stability test, rat plasma; conditions: rat plasma, 1 μM, 37° C.
Experimental: as §4, §5

[7] = Plasma stability test, human plasma; conditions: human plasma, 37° C.
Experimental: as §4, §5

CYP3A4, sequence (P08684 whole entry): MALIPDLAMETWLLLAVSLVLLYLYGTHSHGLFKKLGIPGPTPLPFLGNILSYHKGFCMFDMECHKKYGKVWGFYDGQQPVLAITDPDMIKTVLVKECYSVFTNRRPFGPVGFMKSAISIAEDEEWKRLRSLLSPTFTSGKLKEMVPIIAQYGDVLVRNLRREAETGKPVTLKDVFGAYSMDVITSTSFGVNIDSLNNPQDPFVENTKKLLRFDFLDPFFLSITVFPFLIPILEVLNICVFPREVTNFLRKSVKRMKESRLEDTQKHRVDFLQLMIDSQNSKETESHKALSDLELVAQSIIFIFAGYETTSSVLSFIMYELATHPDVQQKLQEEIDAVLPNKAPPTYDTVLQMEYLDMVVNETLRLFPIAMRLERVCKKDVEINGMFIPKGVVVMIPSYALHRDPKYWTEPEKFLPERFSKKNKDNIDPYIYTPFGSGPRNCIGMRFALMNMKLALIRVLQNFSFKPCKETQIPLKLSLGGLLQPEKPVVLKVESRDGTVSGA
CYP2D6, sequence (P10635 whole entry): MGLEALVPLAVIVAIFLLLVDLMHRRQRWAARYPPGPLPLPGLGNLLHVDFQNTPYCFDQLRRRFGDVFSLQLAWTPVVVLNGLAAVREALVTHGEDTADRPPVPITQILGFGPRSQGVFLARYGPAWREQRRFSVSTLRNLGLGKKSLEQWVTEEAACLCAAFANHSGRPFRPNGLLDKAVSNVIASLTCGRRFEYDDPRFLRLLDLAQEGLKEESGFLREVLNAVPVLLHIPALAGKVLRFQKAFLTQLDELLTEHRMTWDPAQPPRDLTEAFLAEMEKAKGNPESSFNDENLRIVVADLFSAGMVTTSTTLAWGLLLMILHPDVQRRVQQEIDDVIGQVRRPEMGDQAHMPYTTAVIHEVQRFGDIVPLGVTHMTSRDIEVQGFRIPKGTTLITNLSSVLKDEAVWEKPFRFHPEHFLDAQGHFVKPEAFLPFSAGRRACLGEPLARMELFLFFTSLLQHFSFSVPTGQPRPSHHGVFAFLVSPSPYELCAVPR
CYP2C19, sequence (P33261 whole entry): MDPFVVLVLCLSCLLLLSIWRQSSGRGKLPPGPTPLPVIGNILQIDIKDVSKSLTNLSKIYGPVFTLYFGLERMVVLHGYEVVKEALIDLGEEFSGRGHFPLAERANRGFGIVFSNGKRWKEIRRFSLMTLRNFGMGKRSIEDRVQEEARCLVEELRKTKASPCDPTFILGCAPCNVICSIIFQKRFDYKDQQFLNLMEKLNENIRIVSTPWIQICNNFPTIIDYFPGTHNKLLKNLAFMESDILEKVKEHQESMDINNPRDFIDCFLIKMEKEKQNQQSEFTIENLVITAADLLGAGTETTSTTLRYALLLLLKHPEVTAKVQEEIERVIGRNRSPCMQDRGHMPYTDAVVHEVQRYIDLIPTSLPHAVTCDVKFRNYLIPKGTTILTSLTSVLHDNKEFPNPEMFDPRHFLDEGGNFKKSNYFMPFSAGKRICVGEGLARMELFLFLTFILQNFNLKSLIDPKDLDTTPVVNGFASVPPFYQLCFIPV
CYP2C9, sequence (P11712 whole entry): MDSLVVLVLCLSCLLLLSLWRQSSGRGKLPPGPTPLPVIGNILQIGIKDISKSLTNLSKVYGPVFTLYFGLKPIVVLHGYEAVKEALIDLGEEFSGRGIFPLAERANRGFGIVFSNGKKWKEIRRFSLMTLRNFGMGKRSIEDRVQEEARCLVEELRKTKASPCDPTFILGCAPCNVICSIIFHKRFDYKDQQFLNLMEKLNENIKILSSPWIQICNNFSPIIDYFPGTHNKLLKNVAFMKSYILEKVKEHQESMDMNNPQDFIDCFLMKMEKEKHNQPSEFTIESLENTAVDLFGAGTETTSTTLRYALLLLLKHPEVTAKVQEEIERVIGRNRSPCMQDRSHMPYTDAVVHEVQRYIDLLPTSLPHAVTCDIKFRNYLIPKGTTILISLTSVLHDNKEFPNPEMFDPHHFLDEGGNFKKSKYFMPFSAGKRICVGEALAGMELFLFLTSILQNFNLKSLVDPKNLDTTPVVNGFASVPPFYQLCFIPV

Molecule | AMPK phosphorylation activity (fold change) (AMPK phosphorylation) | remaining at 0.5 h, 1 μM [1] [%] | remaining at 0.5 h, 1 μM [2] [%] | CYP inhibition (% of control activity) CYP1A2 (CYP1A2) | CYP inhibition (% of control activity) CYP2C19 (CYP2C19) | CYP inhibition (% of control activity) CYP2C9 (CYP2C9) | CYP inhibition (% of control activity) CYP2D6 (CYP2D6) | CYP inhibition (% of control activity) CYP3A4 (CYP3A4) | remaining at 0.5 h, 1 μM (in vitro [3]) [%] | remaining at 2 h, 1 μM (in vitro [3]) [%] | remaining at 0.5 h, 1 μM (in vitro [4]) [%] | remaining at 2 h, 1 μM (in vitro [4]) [%] | remaining at 0.5 h, 1 μM (in vitro [5]) [%] | also measured
NCC(=O)NC(CC(N)=O)C(=O)NC(Cc1ccc(O)cc1)C(=O)NC(Cc1ccc(O)cc1)C(=O)NC(Cc1ccccc1)C(=O)O (stereo not drawn) [DS-9, NH2-GNYYF-OH] (H-GNYYF-OH; configuration not given here) | 1.6 | – | – | – | – | – | – | – | – | – | – | – | – | –
CC(C)CC(NC(=O)CN)C(=O)NC(Cc1c[nH]c2ccccc12)C(=O)NC(Cc1ccc(O)cc1)C(=O)NC(Cc1ccccc1)C(N)=O (stereo not drawn) [DS-17, NH2-GLWYF-NH2] (H-GLWYF-NH2; configuration not given here) | 1.2 | – | – | – | – | – | – | – | – | – | – | – | – | AMPK phosphorylation activity compared to APN5 (in words) (AMPK phosphorylation): significant effect of increasing AMPK phosphorylation activity; AMPK phosphorylation activity after knockdown of the adiponectin receptor 1 (adiponectin receptor 1): decreased the AMPK phosphorylation activity after knockdown of the adiponectin receptor 1
CCC(C)C(NC(=O)CN)C(=O)NC(Cc1c[nH]c2ccccc12)C(=O)NC(Cc1ccc(O)cc1)C(=O)NC(Cc1ccccc1)C(N)=O (stereo not drawn) [DS-18, NH2-GIWYF-NH2] (H-GIWYF-NH2; configuration not given here) | 1.2 | – | – | – | – | – | – | – | – | – | – | – | – | AMPK phosphorylation activity compared to APN5 (in words) (AMPK phosphorylation): significant effect of increasing AMPK phosphorylation activity; AMPK phosphorylation activity after knockdown of the adiponectin receptor 1 (adiponectin receptor 1): decreased the AMPK phosphorylation activity after knockdown of the adiponectin receptor 1
NC(CC(=O)O)C(=O)NC(Cc1ccc(O)cc1)C(=O)NC(Cc1ccc(O)cc1)C(=O)NC(Cc1ccccc1)C(=O)O (stereo not drawn) [DS-27, NH2-DYYF-OH] (H-DYYF-OH; configuration not given here) | 1.3 | – | – | – | – | – | – | – | – | – | – | – | – | solubility at 24 h (physchem): 300 µg/mL (≈ 495 µM)
NC(=O)C(Cc1ccccc1)NC(=O)C(Cc1ccc(O)cc1)NC(=O)C(Cc1ccc(O)cc1)NC(=O)C(N)CC(=O)O (stereo not drawn) [DS-29, NH2-DYYF-NH2] (H-DYYF-NH2; configuration not given here) | 1.2 | – | – | – | – | – | – | – | – | – | – | – | – | solubility at 24 h (physchem): 300 µg/mL (≈ 495 µM)
NCCCCC(NC(=O)C(Cc1ccc(O)cc1)NC(=O)C(Cc1ccc(O)cc1)NC(=O)C(CC(=O)O)NC(=O)CN)C(N)=O (stereo not drawn) [DS-35, NH2-GDYYK-NH2] (H-GDYYK-NH2; configuration not given here) | – | 95.8 | 99.2 | 77.7 % of control activity | 4.1 % of control activity | 93.6 % of control activity | 97.4 % of control activity | >100 % of control activity | 2.9 | < 1 | 99.4 | 89.4 | > 100 | –
CC(C)CC(NC(=O)CN)C(=O)N(C)C(Cc1ccc(O)cc1)C(=O)NC(Cc1ccc(O)cc1)C(=O)NC(Cc1ccccc1)C(N)=O (stereo not drawn) [DS-56, NH2-GLY(N-Me)YF-NH2] | – | 41.1 | 10.6 | 80.5 % of control activity | 73.5 % of control activity | 100.0 % of control activity | 91.6 % of control activity | 9.2 % of control activity | 2.8 | < 1 | 70.9 | 29.4 | 53.9 | –
CC(C)CC1NC(=O)C(N)CC/C=C\CC(C(N)=O)NC(=O)C(Cc2ccc(O)cc2)NC(=O)C(Cc2ccc(O)cc2)NC1=O (stereo not drawn) [DS-73] (H-[ξhAlg]LYY[AllylGly]-NH2; staple (Z) 1-5; configuration not given here) | – | 65.7 | 78 | 82.7 % of control activity | 85.1 % of control activity | 96.5 % of control activity | 85.9 % of control activity | 80.5 % of control activity | 94.7 | 75.2 | > 100 | 89.3 | 71.6 | solubility at 24 h (physchem): 315 µg/mL (≈ 495 µM)
CCOC(=O)[C@H](CCc1ccccc1)N[C@@H](C)C(=O)N1CCC[C@H]1C(=O)O [Enalapril] | – | – | – | – | – | – | – | – | – | – | – | – | – | Plasma stability (% remaining) Rat, 30 m [6]: 27.9 % remaining; Plasma stability (% remaining) Rat, 120 m [6]: <1 % remaining; Plasma stability (% remaining) Human, 30 m ([7]; 1 μM, 30 m): >100 % remaining; Plasma stability (% remaining) Human, 120 m ([7]; 1 μM, 120 m): 197.4 % remaining
CC(=O)N1CCN(c2ccc(OCC3COC(Cn4ccnc4)(c4ccc(Cl)cc4Cl)O3)cc2)CC1 (stereo not drawn) [Ketoconazole, reference compound] | – | – | – | 97.2 % of control activity | >100 % of control activity | >100 % of control activity | – | – | – | – | – | – | – | –
CCN(CC)CCOC(=O)c1ccc(N)cc1 [Procaine] | – | – | – | – | – | – | – | – | – | – | – | – | – | Plasma stability (% remaining) Rat, 30 m [6]: 90.3 % remaining; Plasma stability (% remaining) Rat, 120 m [6]: 57.4 % remaining; Plasma stability (% remaining) Human, 30 m column, marked (5 min) ([7]; cell marked (5 min)): 2.8 % remaining; Plasma stability (% remaining) Human, 120 m column, marked (5 min) ([7]; cell marked (5 min)): <1 % remaining
Ac-GDYYF-NH2 [DS-8, AcNH-GDYYF-NH2] | – | 78.2 | 83.6 | 95.1 % of control activity | 100 % of control activity | >100 % of control activity | >100 % of control activity | >100 % of control activity | 39.8 | 3.3 | > 100 | 96 | 93.9 | –
H-GDYYF-OH [DS-5, NH2-GDYYF-OH] | – | 66.4 | 95.9 | 83.2 % of control activity | 80.9 % of control activity | 97.3 % of control activity | 85.5 % of control activity | 90.9 % of control activity | 1.4 | < 1 | > 100 | 94.1 | 62.5 | solubility kinetic at 24 h (physchem): 328 µg/mL
